Structure (SMILES)	melting point
CCOP(=O)(Cc1ccc(-c2nc3cccc(Cl)c3o2)cc1)OCC	92 to 93 °C
CN(C)c1ccc2c(c1)O/C(=C1/Oc3cc(N(C)C)ccc3C1=O)C2=O	> 320 °C
Cc1cc(C)c2c(=O)n(CC(=O)N3CCNCC3)sc2n1	175 to 177 °C
Cc1cc(Nc2nc(Nc3ccc(N)cc3)nc3ccccc23)[nH]n1	164 to 167 °C
CC(O)(CCN1CCOCC1)c1ccc(-c2ccc(Br)cc2)cc1 (stereo not drawn)	97 to 99 °C
Cc1[nH]c2ccc(OS(=O)(=O)c3c(F)cccc3F)cc2c1C1CCN(C)CC1	138 °C
O=Cc1ccc2ccccc2c1OCc1ccccc1	62 to 63 °C
CC(CBr)N1CCN(c2ccccn2)CC1 (stereo not drawn)	50 to 51 °C
C=C1C[C@@H](C(=O)O)[C@H](C(=O)O)C1 (relative stereo)	178 to 179 °C
CCOC(=O)C1=C(C)N=C(SCc2ccccc2)N(C(=O)OCC)C1c1ccccc1C(F)(F)F (stereo not drawn)	85.5 to 87.5 °C
CN1CCn2c1nc(C(=O)NCc1ccc(F)cc1)c(O)c2=O	212 °C
CCCOc1ccc(COCCN2CCOCC2)cc1-c1nc2c(CCC)nn(C)c2c(=O)[nH]1	65 to 66 °C
CC(=O)Nc1nc(NC(C)CCc2ccccc2)nc(C(C)(C)F)n1 (stereo not drawn)	91 °C
CC(C)(C)NC(=O)c1ccc(-c2ccc3nnn(Cc4ccc5ncccc5c4)c3n2)cc1F	210 to 212 °C
Clc1ccc(N2CCN(Cc3coc4cccnc34)CC2)cc1	128 to 129 °C
CC(C)CCCCCCCCCCCCc1ccc(O)cc1O	70 °C
CCOc1cc2c(cc1OCC)-c1c(C#N)sc(=O)n1CC2	172 to 174 °C
COC(=O)CCCCCCCCCCCCc1ccccc1	30.5 to 31.5 °C
CCn1c(C(=O)c2cc(C)cc(CCC#N)c2)c(C(C)C)c(=O)[nH]c1=O	173 to 174 °C

Structure (SMILES)	melting point
CNC(=O)ON=Cc1nn(-c2c(Cl)cc(C(F)(F)F)cc2Cl)c(N)c1S(C)=O (stereo not drawn)	146 to 147 °C
C(=C\c1nc(COc2ccc(CCCCn3ccnc3)cc2)co1)/c1ccccc1	103 to 104 °C
C#CC(C)(O)C1CCC2C3CC=C4CC(F)CCC4(C)C3CCC21C (stereo not drawn)	213 to 214 °C
O=C(O)CC1CCCc2c1n(Cc1ccc(Cl)cc1)c1c(F)cccc21 (stereo not drawn)	94 to 94.5 °C
CCCC1CCC(C2CC3(C2)CC(C(F)(F)Oc2cc(F)c(F)c(F)c2)C3)CC1 (stereo not drawn)	43 °C
CCS(=O)(=O)c1ccc(-c2coc3ccc(-c4nnc(C)o4)cc23)cc1F	200 to 201 °C
C#CC1C2=C(c3ccc(OCc4ccccc4[N+](=O)[O-])cc3N1C(=O)Oc1ccccc1)C(O[Si](C)(C)C(C)(C)C)CCC2 (stereo not drawn)	188 to 190 °C
OCc1c(CO)c(-c2ccc(Cl)cc2)n2c1Cc1ccccc1C2	170 to 171 °C
O=C(Nc1cccc2ncccc12)C(Cl)(Cl)Cl	145 to 147 °C
CC(C)C(NC(=O)OCc1ccccc1)C(=O)NC(Cc1ccccc1)C(O)C(Cc1ccccc1)NC(=O)C(NC(=O)OCc1cccnc1)C(C)C (stereo not drawn)	177 to 178 °C
COCc1ccoc1-c1cc(-n2c(N)nc3ccccc32)ccc1C	174 to 176 °C
C=CCNC(=O)NNC(=O)c1cccnc1	165 to 167 °C
CN(Cc1ccc(-c2ccc(OCC#N)c(Br)c2)cc1)C(=O)c1cn(C)c2ccccc12	202 to 206 °C
COc1cc2c3c(Br)cc(OC)c(OC)c3n(S(C)(=O)=O)c2cc1OC	178 to 179 °C
O=C(c1ccc(F)c(F)c1)N1CCCC(c2noc(-c3ccc[nH]3)n2)C1 (stereo not drawn)	168 °C
Brc1ccc(-c2ccc(-c3ccc(Br)s3)c3nsnc23)s1	247 to 248 °C
NNC(=O)C(O)c1cc(F)cc(F)c1 (stereo not drawn)	119 °C
O=C1NCCc2c(-c3ccc(F)cc3F)[nH]c3cccc1c23	196 to 197 °C
CC(C)(C)CC(C)(C)c1cc(-n2nc3ccc(S(=O)(=O)c4ccccc4)cc3n2)c(O)c(C(C)(C)c2ccccc2)c1	170 to 171 °C
